Data as given in patent publication US12648928B2, “Intervention strategy for prevention or treatment of diabetes mellitus, autoimmune disease, inflammatory disease or cardiovascular disease” (ACADEMISCH MEDISCH CENTRUM, priority 2020, dated 2026).
Entries after “also recorded” stand apart in the source; their conditions may differ.

Assays:
[1] = target: T1, AhR (Homo sapiens, UniProt P35869); assay: AhR activation
T1 sequence (P35869 11-848): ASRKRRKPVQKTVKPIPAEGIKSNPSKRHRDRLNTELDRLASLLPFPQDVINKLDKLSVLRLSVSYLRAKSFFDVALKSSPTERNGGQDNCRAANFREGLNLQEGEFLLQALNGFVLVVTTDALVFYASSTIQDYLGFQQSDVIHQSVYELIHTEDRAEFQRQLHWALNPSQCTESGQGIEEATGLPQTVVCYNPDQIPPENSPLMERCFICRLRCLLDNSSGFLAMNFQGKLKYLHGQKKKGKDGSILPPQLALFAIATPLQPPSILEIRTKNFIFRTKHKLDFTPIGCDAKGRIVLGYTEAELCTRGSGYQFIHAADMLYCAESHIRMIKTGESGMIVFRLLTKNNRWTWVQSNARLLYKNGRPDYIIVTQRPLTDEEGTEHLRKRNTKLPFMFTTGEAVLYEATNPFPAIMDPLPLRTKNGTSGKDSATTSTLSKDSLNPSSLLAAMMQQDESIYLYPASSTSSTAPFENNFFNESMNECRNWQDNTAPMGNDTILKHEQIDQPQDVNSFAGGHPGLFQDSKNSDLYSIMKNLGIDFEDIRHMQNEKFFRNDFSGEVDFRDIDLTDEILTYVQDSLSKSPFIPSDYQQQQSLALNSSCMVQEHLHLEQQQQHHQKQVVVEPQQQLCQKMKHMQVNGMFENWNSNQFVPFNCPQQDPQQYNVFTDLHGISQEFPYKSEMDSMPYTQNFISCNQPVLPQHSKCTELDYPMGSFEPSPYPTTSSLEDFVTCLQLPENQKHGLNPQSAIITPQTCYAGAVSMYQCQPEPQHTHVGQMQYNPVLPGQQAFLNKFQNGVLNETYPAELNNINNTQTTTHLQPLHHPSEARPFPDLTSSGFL

[2] = tested on: NF-κB; assay: NF-κB reporter macrophage luciferase assay (RAW264.7); format: cell-based, murine
Experimental: NF-κB signaling activation was assessed by luciferase activity assay. RAW264.7 cells stably transfected with the 3×-κB-luc plasmid (DNA construct containing three NF-κB sites from the Ig κ light chain promoter coupled to the gene encoding firefly luciferase) were grown in DMEM medium supplemented with 10% heat-inactivated fetal bovine serum, penicillin (100 U/ml), streptomycin (100 μg/ml), L-glutamine (2 mM). Cells were seeded in F-bottom 96-well […] metabolites at different concentrations (6-BT 0,1-100 μM, LysoPC(20:0) 1-10 μM, 16:0-18:2 PE 1-50 μM, MA-GPC 1-100 μM). Afterwards, cells were lysed with 25 μl/well 1×passive lysis buffer and firefly luciferase activity was measured by LUCIFERASE® Assay System (Promega, E1500) on a GLOMAX @-Multi Detection System (Promega).

[3] = tested on: pro-inflammatory M1 macrophages; assay: Seahorse XF intracellular metabolism, M1 macrophages; format: cell-based; conditions: M1 macrophages differentiated in presence of LPS and IFNgamma (FIG. 23)
Text: Intracellular metabolism measured using a Seahorse XF Analyzer, Uchimura T., The Innate Immune Sensor NLRC3 Acts as a Rheostat that Fine-Tunes T Cell Responses in Infection and Autoimmunity. Immunity 2019; Chou, AIM2 in regulatory T cells restrains autoimmune diseases, nature 2021.

[4] = tested on: NF-kB pathway; assay: Phosphorylated p65 subunit after PMA/ionomycin activation, murine CD4 T cells; format: cell-based; conditions: PMA 50 μg/ml and ionomycin 1 μg/ml, 5-10 minutes after activation (FIG. 18)
Experimental: Seeking for the molecular mechanism(s) underlying 6-BT actions, 6-BT impact on the activation of the NF-kB pathway, a central pathway in all inflammatory diseases (beyond autoimmunity) was checked first. […] Upon T cell activation with PMA ([…]) and ionomycin (1 μg/ml), 6-BT could inhibit, at very early time-points (5-10 minutes after activation), the NF-kB signaling. This effect was found in both murine and human (Jurkat cells) CD4 T cells.

[5] = tested on: murine CD4+ T cells; assay: In vitro CD4+ T cell activation assay (anti-CD3/anti-CD28); format: cell-based
Experimental: Primary CD4+ T cells were freshly isolated by negative selection from spleens of C57/B16 mice (N=3 per experiment). Briefly, spleens were smashed in a culture dish and passed twice through a strainer (70 μm and 40 μm, respectively) to obtain a single-cell suspension.
Using the negative selection (CD4+ T Cell Isolation kit, Miltenyi Biotec, #130-10-454). Non-CD4 T cells were depleted by retaining them in LS magnetizing column (Miltenyi Biotec).
Isolated CD4 T cells were cultured in 96-well plates (1×10^5 per well) in RPMI1640 medium supplemented with 10% fetal bovine serum, 100 U/ml penicillin, 100 μg/ml streptomycin, 2 mM L-glutamine. Treatment with the metabolites 6-BT (1/10 μM), LysoPC(20:0) (10/50 μM) or MA-GPC (10/50/100 μM) and activation with 2.5 μg/ml soluble anti-CD3 (145-2C11, eBioscience) and 1 μg/ml soluble anti-CD28 (37.51, eBioscience) antibodies started immediately after seeding in 200 i/well complete RPMI1640 media for a 24-hour period, at the end of which supernatant was harvested and stored at −80° C.
Specific ELISAs (R&D Systems) were utilized to measure the concentration of TNFα, IFNβ, and IFNγ in cell supernatant of murine monocytes, macrophages ad T cells, respectively, according to the manufacturer's instructions. The concentration of insulin after 24-hour treatment with metabolites or after GSIS were determined using Rat insulin ELISA (Mercodia) according to the manufacturer's instructions. GSIS was calculated by subtracting the concentration of insulin at 1 mM glucose to the insulin rate at 22 mM glucose.
Particularly in the context of autoimmune diabetes, the activity of T cells is driving disease onset and progression. […] To mimic antigen presentation, murine CD4 T cells (isolated from spleens; Uchimura T., The Innate Immune Sensor NLRC3 Acts as a Rheostat that Fine-Tunes T Cell Responses in Infection and Autoimmunity. Immunity 2019) were activated by monoclonal antibodies against CD3 and CD28 (2.5 and 1 μg/ml, respectively).

**Q.** Which “activation of AhR” value [1] does the source give for `N[C@@H](Cc1c[nH]c2cc(Br)ccc12)C(=O)O` [6-BT, 6-bromotryptophan] here?
**A.** Its value is “does not act through activation of AhR”.

**Q.** And the “NFκB pathway activation in macrophages” value ([2]; RAW264.7 3x-κB-luc, LPS 10/100 ng/ml 2 hours, different doses (FIG. 7))?
**A.** The value was “can inhibit NFκB pathway activation”.

**Q.** And the “transcriptional activity of the NFkB complex” value ([2]; RAW264.7 NFkB luciferase reporter, overnight exposure 10-200 μM, 2 hours LPS (10 μg/ml) (FIG. 19))?
**A.** The value was “inhibits the transcriptional activity of the NFkB complex in a dose-dependent manner”.

**Q.** What about the glycolytic flux [3] of the same compound?
**A.** The glycolytic flux was “without affecting the glycolytic flux”.

**Q.** And the mitochondrial metabolism [3]?
**A.** Its mitochondrial metabolism is “could enhance the mitochondrial metabolism”.

**Q.** And the “NF-kB signaling (phosphorylated p65 subunit)” value [4]?
**A.** Its value is “could inhibit”.

**Q.** What about the “production of the Th1 cytokine IFNgamma” value ([5]; CD4 T cells from spleens, anti-CD3 2.5 μg/ml and anti-CD28 1 μg/ml (FIGS. 16, 20)) of the same compound?
**A.** Its value is “significantly reduced; also recorded: exerted inhibitory effect”.

**Q.** What about the “Th1 responses in CD4 T cells” value ([5]; anti-CD3 & anti-CD28 mAbs, 24 hours (FIG. 11)) of the same compound?
**A.** The value was “dampen Th1 responses”.
